Measurements published in ChEMBL document CHEMBL1697681, “Predicting phospholipidosis using machine learning” (Mol Pharm, 2010).

Tested on: Phospholipidosis
Assay: Literature-mined public compounds from Lowe et al phospholipidosis modelling dataset

SMILES | Phospholipidosis
CCN(CC)Cc1cc(Nc2ccnc3cc(Cl)ccc23)ccc1O.Cl | Positive
CC(=O)Oc1ccccc1C(=O)O [ASPIRIN] | Negative
Cc1cn([C@H]2C=C[C@@H](CO)O2)c(=O)[nH]c1=O [STAVUDINE] | Negative
CN[C@H]1CC[C@@H](c2ccc(Cl)c(Cl)c2)c2ccccc21 [SERTRALINE] | Positive
NCC[C@H](O)C(=O)N[C@@H]1C[C@H](N)[C@@H](O[C@H]2O[C@H](CN)[C@@H](O)[C@H](O)[C@H]2O)[C@H](O)[C@H]1O[C@H]1O[C@H](CO)[C@@H](O)[C@H](N)[C@H]1O [AMIKACIN] | Positive
CN1CCCN(C(c2ccccc2)c2ccc(Cl)cc2)CC1 (stereo not given) [HOMOCHLORCYCLIZINE] | Positive
NC[C@H]1O[C@H](O[C@H]2[C@H](O)[C@@H](O[C@H]3O[C@H](CO)[C@@H](O)[C@H](N)[C@H]3O)[C@H](N)C[C@@H]2N)[C@H](N)C[C@@H]1O [TOBRAMYCIN] | Positive
O=C(O)CCCCCCNC1c2ccccc2CCc2ccccc21 [AMINEPTINE] | Negative
CN1[C@@H]2CC[C@H]1C[C@@H](OC(=O)C(CO)c1ccccc1)C2 (stereo not given in full) [ATROPINE] | Positive
CN1CCN(CCCCN2C(=O)CN(/N=C/c3ccc(-c4ccc(Cl)cc4)o3)C2=O)CC1.Cl.Cl [AZIMILIDE DIHYDROCHLORIDE] | Positive
CO[C@H]1/C=C/O[C@@]2(C)Oc3c(C)c(O)c4c(O)c(c(/C=N/N5CCN(C)CC5)c(O)c4c3C2=O)NC(=O)/C(C)=C\C=C\[C@H](C)[C@H](O)[C@@H](C)[C@@H](O)[C@@H](C)[C@H](OC(C)=O)[C@@H]1C [RIFAMPIN] | Negative
CN1CCN(C2=Nc3cc(Cl)ccc3N(C)n3cccc32)CC1 | Positive
Cc1ccc(C)c(OCCCC(C)(C)C(=O)O)c1 [GEMFIBROZIL] | Negative
Cc1ccc(C(=O)Nc2ccc(S(=O)(=O)O)c3cc(S(=O)(=O)O)cc(S(=O)(=O)O)c23)cc1NC(=O)c1cccc(NC(=O)Nc2cccc(C(=O)Nc3cc(C(=O)Nc4ccc(S(=O)(=O)O)c5cc(S(=O)(=O)O)cc(S(=O)(=O)O)c45)ccc3C)c2)c1 [SURAMIN] | Positive
CN(C)CCCC1c2ccccc2Nc2ccc(Cl)cc21 (stereo not given) [CLOMACRAN] | Positive
CCC1(c2ccccc2)C(=O)NC(=O)NC1=O [PHENOBARBITAL] | Negative
CN(C)CCCN1c2ccccc2CCc2ccccc21 [IMIPRAMINE] | Positive
CC1=C(CC(=O)O)c2cc(F)ccc2/C1=C\c1ccc([S+](C)[O-])cc1 (stereo not given) | Negative
CN(C)[C@@H]1C(O)=C(C(=O)NCN2CCCC2)C(=O)[C@@]2(O)C(O)=C3C(=O)c4c(O)cccc4[C@@](C)(O)[C@H]3C[C@@H]12 [ROLITETRACYCLINE] | Negative
O=C(O)c1cc(-c2ccc(F)cc2F)ccc1O [DIFLUNISAL] | Negative
CC(NC(C)(C)C)C(=O)c1cccc(Cl)c1 (stereo not given) [BUPROPION] | Negative
CC(CCCN(CCCl)CCCl)Nc1ccnc2cc(Cl)ccc12 (stereo not given) [CHLOROQUINE MUSTARD] | Positive
Cn1c(=O)c2c(ncn2C)n(C)c1=O [CAFFEINE] | Negative
CCN(CC)CCOc1ccc(C(O)(Cc2ccc(Cl)cc2)c2ccc(C)cc2)cc1 (stereo not given) [TRIPARANOL] | Positive
CCCC[C@@H]1CC(=O)[C@]2(O)O[C@@H]3[C@@H](NC)[C@@H](O)[C@@H](NC)[C@H](O)[C@H]3O[C@@H]2O1.O=S(=O)(O)O | Positive
CCC(=O)C(CC(C)N(C)C)(c1ccccc1)c1ccccc1 (stereo not given) [METHADONE] | Negative
Oc1ncnc2[nH]ncc12 [ALLOPURINOL] | Positive

SMILES | Phospholipidosis
Cc1cn([C@H]2C[C@H](N=[N+]=[N-])[C@@H](CO)O2)c(=O)[nH]c1=O [ZIDOVUDINE] | Negative
CN1CCN(C2=Nc3cc(Cl)ccc3Nc3ccccc32)CC1 [CLOZAPINE] | Positive
CN1CCN2c3ccccc3Cc3ccccc3C2C1 (stereo not given) [MIANSERIN] | Positive
CC1(C)OCC(C(CS(=O)(=O)c2ccc(Oc3cccc(OC(F)(F)F)c3)cc2)NC=O)O1 (stereo not given) | Negative
COCCCC/C(=N\OCCN)c1ccc(C(F)(F)F)cc1 [FLUVOXAMINE] | Positive
CCN(CC)CCOC(=O)c1ccc(N)cc1 [PROCAINE] | Negative
ClC(Cl)(Cl)Cl [CARBON TETRACHLORIDE] | Negative
CC(C)NCC(O)COc1cccc2ccccc12 (stereo not given) [PROPRANOLOL] | Positive
COc1cccc2c1C(=O)c1c(O)c3c(c(O)c1C2=O)C[C@@](O)(C(=O)CO)C[C@@H]3O[C@H]1C[C@H](N)[C@H](O)[C@H](C)O1 [DOXORUBICIN] | Negative
CN(Cc1cc(Br)cc(Br)c1N)C1CCCCC1 [BROMHEXINE] | Positive
CCC[C@@H](NC(=O)N1C(=O)C(CC)(CC)[C@@H]1Oc1ccc(C(=O)N2CCN(C)CC2)cc1)c1ccc2c(c1)OCO2 | Positive
CC1(C)C(=O)NC(=O)N1CC(COc1ccc(-c2ccc(OC(F)(F)F)cc2)cc1)NC=O (stereo not given) | Negative
N=C(N)c1ccc(/C=C/c2ccc(C(=N)N)cc2)cc1 [STILBAMIDINE] | Positive
Cc1ccc2cc3c(ccc4ccccc43)c3c2c1CC3 [3-METHYLCHOLANTHRENE] | Negative
Cc1cc(NS(=O)(=O)c2ccc(N)cc2)no1 [SULFAMETHOXAZOLE] | Negative
C[C@H]1c2cccc(O)c2C(=O)C2=C(O)[C@]3(O)C(=O)C(C(N)=O)=C(O)[C@@H](N(C)C)[C@@H]3[C@@H](O)[C@@H]21.O [DOXYCYCLINE] | Negative
CC1(C)C(=O)NC(=O)N1CC(N)COc1ccc(-c2ccc(OC(F)(F)F)cc2)cc1 (stereo not given) | Positive
N[C@H]1C(O)O[C@H](CO)[C@@H](O)[C@@H]1O (stereo not given in full) [GLUCOSAMINE] | Negative
Clc1ccc(C(c2ccccc2)N2CCNCC2)cc1 (stereo not given) [NORCHLORCYCLIZINE] | Positive
C[n+]1ccc(-c2cc[n+](C)cc2)cc1 | Positive
CN1CCN(C(c2ccccc2)c2ccc(Cl)cc2)CC1 (stereo not given) [CHLORCYCLIZINE] | Positive
CCC(c1ccc(OCCN(CC)CC)cc1)C(CC)c1ccc(OCCN(CC)CC)cc1 (stereo not given) [CORALGIL] | Positive
CC/C(=C(\c1ccccc1)c1ccc(OCCN(C)C)cc1)c1ccccc1 [TAMOXIFEN] | Positive
COc1cc2c(cc1OC)C(=O)C(CC1CCN(Cc3ccccc3)CC1)C2 (stereo not given) [DONEPEZIL] | Negative
CN(C)CCC=C1c2ccccc2CCc2c(Cl)cccc21 | Positive
COc1cc2c(c(OC)c1OC)-c1ccc(OC)c(=O)cc1[C@@H](NC(C)=O)CC2 [COLCHICINE] | Negative
OC(CN1CCCCC1)c1ccc(C=C2c3ccccc3-c3ccccc32)cc1 (stereo not given) | Positive

SMILES | Phospholipidosis
CN1C(=O)CN=C(c2ccccc2)c2cc(Cl)ccc21 [DIAZEPAM] | Negative
C[C@H]1COc2c(N3CCN(C)CC3)c(F)cc3c(=O)c(C(=O)O)cn1c23.C[C@H]1COc2c(N3CCN(C)CC3)c(F)cc3c(=O)c(C(=O)O)cn1c23.O [LEVOFLOXACIN] | Negative
CN1CCCCC1CCN1c2ccccc2Sc2ccc([S+](C)[O-])cc21 (stereo not given) [MESORIDAZINE] | Positive
CC1(C)NC(=O)N(C[C@@H](COc2ccc(-c3ccc(OC(F)(F)F)cc3)cc2)N(O)C=O)C1=O | Negative
CC(C)NCC(O)c1ccc(NS(C)(=O)=O)cc1 (stereo not given) [SOTALOL] | Negative
CN(C)CCC=C1c2ccccc2C=Cc2c(Cl)cccc21 | Positive
CCCN[C@@H]1[C@H](C)[C@@H](O)[C@](C)(O)[C@@H](CC)OC(=O)[C@H](C)[C@@H](O[C@H]2C[C@@](C)(OC)[C@@H](O)[C@H](C)O2)[C@H](C)[C@@H](O[C@@H]2O[C@H](C)C[C@H](N(C)C)[C@H]2O)[C@](C)(O)C[C@H]1C | Positive
CC(=O)Nc1ccc(O)cc1 [ACETAMINOPHEN] | Negative
CN1CCN(C(c2ccccc2)c2ccccc2)CC1 [CYCLIZINE] | Positive
Cc1cccc(Nc2cc(Cl)nc(SCC(=O)O)n2)c1C [PIRINIXIC ACID] | Negative
CCC[C@@H]1C[C@@H](C(=O)N[C@@H]([C@H]2O[C@H](SC)[C@H](O)[C@@H](O)[C@H]2O)[C@H](C)Cl)N(C)C1 [CLINDAMYCIN] | Positive
OCCOCCN1CCN(C(c2ccccc2)c2ccc(Cl)cc2)CC1 (stereo not given) [HYDROXYZINE] | Positive
CC(=O)N1CCN(c2ccc(OCC3COC(Cn4ccnc4)(c4ccc(Cl)cc4Cl)O3)cc2)CC1 (stereo not given) [KETOCONAZOLE] | Positive
C[C@](N)(Cc1ccc(O)c(O)c1)C(=O)O [METHYLDOPA] | Negative
CCN(CC)CCCC(C)Nc1c2ccc(Cl)cc2nc2ccc(OC)cc12 (stereo not given) [QUINACRINE] | Positive
O=C1CN(/N=C/c2ccc(-c3ccc([N+](=O)[O-])cc3)o2)C(O)=N1 [DANTROLENE] | Negative
NC(=O)N1c2ccccc2C=Cc2ccccc21 [CARBAMAZEPINE] | Negative
CN1CCN(Cc2nc3cccc4c3c([n+]2[O-])-c2ccccc2-4)CC1 | Positive
ClC(Cl)Cl [CHLOROFORM] | Negative
CCOC(=O)N1CCC(=C2c3ccc(Cl)cc3CCc3cccnc32)CC1 [LORATADINE] | Positive
NCCc1cc(O)c(O)cc1O [OXIDOPAMINE] | Positive
CC(C)N(CCC(CCN1CCCCC1)(C(N)=O)c1ccccc1Cl)C(C)C (stereo not given) [DISOBUTAMIDE] | Positive
CC1COc2c(N3CCN(C)CC3)c(F)cc3c(=O)c(C(=O)O)cn1c23 (stereo not given) [OFLOXACIN] | Negative
CNC(=O)Oc1ccc2c(c1)[C@]1(C)CCN(C)[C@@H]1N2C [PHYSOSTIGMINE] | Negative
CC(C)OC(=O)C(C)(C)Oc1ccc(C(=O)c2ccc(Cl)cc2)cc1 [FENOFIBRATE] | Negative
CN(C)CCCN1c2ccccc2Sc2ccccc21 [PROMAZINE] | Positive
